Where a SMILES comes first, the peptide text is derived from it.
Experiment: Lucigenin assay of Cl− transport in vesicles
Type: biochemical
Conditions: 10 µM compound, interior NaNO3 200 mM, exterior NaCl (2 M), 0.762 mM lipid, 25°C, first-order curve fit
Method: To confirm that chloride could pass through the bilayers, lucigenin assays[5a] were performed for 2, Cu(II)[1]Cl2 and Cu(II)[2]Cl2 (Fig. 5 and ESI, Fig. S10 ^†). The same lipids were used as for the HPTS assays and lucigenin was encapsulated with NaNO3 in the vesicles.
Figure S9: Ionophoric activity determined through an HPTS assay in the presence of NaCl (100 mM) for: 2 (10 µM) in the absence (pink inverted triangles) and presence of FCCP (20 µM, blue triangles) and Cu(II)[2]Cl2 (6 µM) in the absence (red circles) and presence of FCCP (20 µM, black squares). Base pulse at 1 min, TX-100 added at 7 min.
5.4 Preparation of large unilamellar vesicles for lucigenin assays […]
Lucigenin assays procedure and fluorescence normalisation were developed by a modification of published methods.10 An aliquot of the vesicle stock solution (100 μL) w as diluted to 1.9 mL with 200 mM NaNO 3 in water (pH = 7.4) (final lipid co ncentration in cuvette 0.762 mM). […] The cuvette was then placed into a Varian Cary Eclipse fluorescence spectrophotometer in the moderate stirring mode. The fluorescence emission at 505 nm was observed, resulting from excitation at 455 nm, over a period of seven minutes (420 seconds) at 25°C. […] The change in fluorescence was followed for six minutes before final lysis of the vesicles at seven minutes (420 s) by adding an aliquot of a 10 % v/v solution of Triton X-100 […]

CC(C)(NC(=O)C(C)(C)NC(=O)C(C)(C)NC(=O)C(C)(C)NC(=O)C(C)(C)n1cc(CN(Cc2ccccn2)Cc2ccccn2)nn1)C(=O)NC(C)(C)C(=O)NC(C)(C)C(=O)NC(C)(C)C(=O)OCC[Si](C)(C)C [foldamer 2] (HELM PEPTIDE1{[CC(C)(C(=O)[*:2])n1cc(CN(Cc2ccccn2)Cc2ccccn2)nn1].[Aib].[Aib].[Aib].[Aib].[Aib].[Aib].[Aib].[C[Si](C)(C)CCO[*:1]]}$$$$V2.0)
kobs of Cl− transport (lucigenin assay): 0.0052 s⁻¹
